Measured values reported in US20110178104A1, “Anti-Heparin Compounds” (POLYMEDIX INC., priority 2010, published 2011).
Several values for one entry are separate records, joined by “and”; a condition that tells them apart may be missing. Equal entries are not always repeated.

Assays:
fondaparinux = assay: FXa amidolytic assay (Example 10), fondaparinux; conditions: read-out: Fondap FXa EC50; fondaparinux 0.02 μg/mL; human antithrombin, bovine Factor Xa
Unfractionated heparin = assay: aPTT clotting assay, UFH 0.4 U/mL in plasma (Example 10); type: biochemical; conditions: unfractionated heparin 0.4 U/mL in plasma; aPTT clotting
Method: aPTT clotting Assay: Unfractionated heparin was mixed with plasma at a final concentration of 0.4 U/mL (or concentration which increases aPTT time to between 120 and 300 seconds). […] The ACL Elite Hemostasis analyzer (Beckman Coulter™) was used to add aPTT reagent (HemosIL SynthASil) to supplemented plasma. Clotting was initiated by addition of CaCl2 and time to clot was recorded.

tinzaparin = assay: FXa amidolytic assay (Example 10), tinzaparin; conditions: read-out: Tinzap FXa EC50; tinzaparin 0.1 ug/ml; human antithrombin, bovine Factor Xa
enoxaparin = assay: FXa amidolytic assay (Example 10), enoxaparin; conditions: read-out: Enox FXa EC50; enoxaparin 0.1 ug/ml; human antithrombin, bovine Factor Xa

EC50 (fondaparinux) | EC50 (Unfractionated heparin) | EC50 (tinzaparin) | EC50 (enoxaparin) | Structure (SMILES)
7870 nM | 1220 nM | 191 nM | 347 nM | COc1ccc(NC(=O)[C@H](CCCCN)NC(=O)c2cc(NC(=O)[C@H](CCCCN)NC(=O)c3cc(NC(=O)[C@H](CCCCN)NC(=O)c4cccc(NC(=O)[C@@H](N)CCCCN)c4)ccc3OC)ccc2OC)cc1C(N)=O [Compound 216]
6770 nM | 1930 nM | 470 nM | 1030 nM | COc1ccc(NC(=O)[C@H](CCCCN)NC(=O)c2cc(NC(=O)[C@H](CCCCN)NC(=O)c3cc(NC(=O)[C@H](CCCCN)NC(=O)c4cc(N)ccc4OC)ccc3OC)ccc2OC)cc1C(N)=O [Compound 327]
1890 nM | 1250 nM | 426 nM | 608 nM | COc1cc(OC)c(C(=O)Nc2ccc(NC(=O)c3cc(C(=O)Nc4ccc(N=C(N(C)C)N(C)C)cc4)c(OC)cc3OC)cc2)cc1C(=O)NCCN [Compound 422]
581 nM | 1630 nM | 120 nM | 133 nM | COc1ccc(NC(=O)[C@H](N)CCCNC(=N)N)cc1C(=O)N[C@H](CCCNC(=N)N)C(=O)Nc1ccc(OC)c(C(=O)N[C@H](CCCNC(=N)N)C(=O)Nc2ccc(OC)c(C(=O)N[C@H](CCCNC(=N)N)C(=O)Nc3ccc(OCC(=O)O)c(C(N)=O)c3)c2)c1 [Compound 280]
> 10000 nM | > 10000 nM | > 5000 nM | > 5000 nM | COc1cc(OC)c(C(=O)NCCCNC(=O)c2cc(C(=O)NCCCNC(=O)c3cc(C(=O)NCCN)c(OC)cc3OC)c(OC)cc2OC)cc1C(=O)NCCN [Compound 391]
3840 nM | 2930 nM | 438 nM | 784 nM | COc1ccc(NC(=O)[C@H](CCCNC(=N)N)NC(=O)c2cc(NC(=O)[C@H](CCC(=O)O)NC(=O)c3cc(NC(=O)[C@H](CCCNC(=N)N)NC(=O)c4cc(NC(=O)[C@@H](N)CCCNC(=N)N)ccc4OC)ccc3OC)ccc2OC)cc1C(N)=O [Compound 324]
> 10000 nM | > 10000 nM | 2060 nM | 3320 nM | COc1cc(OC)c(C(=O)N[C@H]2CC[C@@H](NC(=O)c3cc(C(=O)NCCN)c(OCCCCCN)cc3OCCCCCN)CC2)cc1C(=O)N[C@H]1CC[C@@H](N=C(N(C)C)N(C)C)CC1 [Compound 414]
4010 nM and 3190 nM | 1310 nM and 1460 nM | 118 nM and 125 nM | 256 nM and 224 nM | COc1ccc(NC(=O)[C@H](CCCCN)NC(=O)c2cc(NC(=O)[C@H](CCCCN)NC(=O)c3cc(NC(=O)[C@H](CCCCN)NC(=O)c4cc(NC(=O)[C@@H](N)CCCCN)ccc4SC)ccc3OC)ccc2OC)cc1C(N)=O [Compound 245]
265 nM | 2900 nM | 242 nM | 243 nM | COc1ccc(NC(=O)[C@H](CCCNC(=N)N)NC(=O)c2cc(NC(=O)[C@H](CCCNC(=N)N)NC(=O)c3cc(NC(=O)[C@H](CCCNC(=N)N)NC(=O)c4cc(NC(C)=O)ccc4OC)ccc3OC)ccc2OC)cc1C(=O)NCC(=O)O [Compound 299]
 | 12100 nM | 359 nM | 1060 nM | COc1cc(OC)c(C(=O)N[C@H]2CC[C@@H](NC(=O)c3cc(C(=O)NCCN(C)C)c(OCCNC(=N)N)cc3OCCNC(=N)N)CC2)cc1C(=O)N[C@H]1CC[C@@H](NC(=O)c2cc(C(=O)NCCN(C)C)c(OCCNC(=N)N)cc2OCCNC(=N)N)CC1 [Compound 225]
2750 nM |  | 176 nM | 241 nM | COC(=O)CCC(=O)N[C@@H](CCCCN)C(=O)Nc1ccc(OC)c(C(=O)N[C@@H](CCCCN)C(=O)Nc2ccc(OC)c(C(=O)N[C@@H](CCCCN)C(=O)Nc3ccc(OC)c(C(=O)N[C@@H](CCCCN)C(=O)Nc4ccc(OC)c(C(N)=O)c4)c3)c2)c1 [Compound 338]
 | 12900 nM | 343 nM | 852 nM | COc1cc(OC)c(C(=O)N[C@H]2CC[C@H](NC(=O)c3cc(C(=O)NCCN(C)C)c(OCCNC(=N)N)cc3OCCNC(=N)N)CC2)cc1C(=O)N[C@H]1CC[C@H](NC(=O)c2cc(C(=O)NCCN(C)C)c(OCCNC(=N)N)cc2OCCNC(=N)N)CC1 [Compound 226]
